Test results reported in the NIST ThermoML archive (doi:10.1021/je400841s).

Conditions: 101.33 kPa, Liquid; for mass density: Vibrating tube method; for viscosity: Concentric cylinders viscometry; for electrical conductivity: impedancemetry (AC impedance bridge)

CCCCn1cc[n+](C)c1.O=S(=O)([O-])C(F)(F)F [1-butyl-3-methylimidazolium trifluoromethanesulfonate]
Conditions | electrical conductivity [S/m] | mass density [kg/m3] | viscosity [mPa·s]
297.98 K | – | 1294.7 | –
298.15 K | 0.301 | – | 86.6
302.79 K | – | 1291.3 | –
303.15 K | 0.378 | – | –
313 K | – | 1283.1 | –
313.15 K | 0.553 | – | 45.6
323.12 K | – | 1275.2 | –
323.15 K | 0.763 | – | 31.6
333.12 K | – | 1267.4 | –
333.15 K | 1.01 | – | 23
343.12 K | – | 1259.8 | –
343.15 K | 1.29 | – | 17.2

CCn1cc[n+](C)c1.COS(=O)(=O)[O-] [1-ethyl-3-methylimidazolium methylsulfate]
Conditions | electrical conductivity [S/m] | mass density [kg/m3] | viscosity [mPa·s]
298.03 K | – | 1282.1 | –
298.15 K | 0.602 | – | 74.3
303.15 K | 0.723 | – | –
312.67 K | – | 1272.2 | –
313.15 K | 1.02 | – | 40.6
322.6 K | – | 1265.8 | –
323.15 K | 1.39 | – | 28.8
332.35 K | – | 1259.4 | –
333.15 K | 1.84 | – | 21.2
342.22 K | – | 1252.9 | –
343.15 K | 2.34 | – | 16.1

CCCCn1cc[n+](C)c1.COS(=O)(=O)[O-] [1-butyl-3-methylimidazolium methyl sulfate]
Conditions | electrical conductivity [S/m] | mass density [kg/m3] | viscosity [mPa·s]
298.08 K | – | 1210.5 | –
298.15 K | 0.126 | – | 223
302.78 K | – | 1207.6 | –
303.15 K | 0.16 | – | –
312.49 K | – | 1201.4 | –
313.15 K | 0.254 | – | 101
322.23 K | – | 1195 | –
323.15 K | 0.382 | – | 64.3
332.16 K | – | 1188.7 | –
333.15 K | 0.551 | – | 43.6
341.68 K | – | 1182.9 | –
343.15 K | 0.757 | – | 31.1

CCn1cc[n+](C)c1.O=S(=O)([O-])C(F)(F)F [1-ethyl-3-methylimidazolium trifluoromethanesulfonate]
Conditions | electrical conductivity [S/m] | mass density [kg/m3] | viscosity [mPa·s]
293.15 K | – | 1382.9 | –
298.15 K | 0.913 | – | 45.9
303.14 K | – | 1374.6 | –
313.14 K | – | 1366.3 | –
313.15 K | 1.45 | – | 27.6
323.14 K | – | 1358 | –
323.15 K | 1.74 | – | 20.2
333.14 K | – | 1349.8 | –
333.15 K | 2.19 | – | 15.5
343.14 K | – | 1341.7 | –
343.15 K | 2.6 | – | 12.3
353.14 K | – | 1333.7 | –
